The results in this text go back to patent publication US5434292A, “Phenylalkanoic acid derivatives, process for producing the same and process for separating optical isomers thereof” (Hisamitsu Pharmaceutical Co., Inc., priority 1994, dated 1995).

In general, ED50 refers to the dose that gives a 50% effect, or the effect in half of the subjects.

Each structure is given as a SMILES string. Like-named read-outs stand apart in the source and are kept apart here.

Holding throughout (assay type): in vivo, Wistar-strain male rats
For data set [1], the system named is Carrageenin-induced paw edema. The data set is described as follows: Carrageenin-induced paw edema experiment using rats. The note with it: Rattus norvegicus, 3 h; for inhibition in vivo at 0.5 mg/kg / inhibition in vivo at 0.2 mg/kg / ED50: oral; for inhibition in vivo at 0.5 mg/kg / inhibition in vivo at 0.2 mg/kg: three hours after induction, vs control; for ED50: edema inhibition three hours after induction. The method, then:
Pharmacological Experiment 1 (Carrageenin-induced paw edema experiment using rats)
There were used groups each consisting of seven Wistar-strain male rats each weighing about 150 g as test animals (subjects). One hour later than said administration, 0.1 ml of 1%λ-carrageenin was hypodermically injected to the paw of right hind leg of each of the test animals to induce the reaction. Thereafter, each test animal so injected was measured for its paw volume with the lapse of time.
The experimental results were indicated in terms of edema inhibition rates and effective doses (ED50) found by comparing the edema rate of each test rat with that of each rat of the control group (to which no test compounds were orally administered) three hours after having induced the reaction.
(In general: In the carrageenan paw model, swelling and tenderness develop within hours.)

In data set [2] the test system is threshold of pain of the paws. The data set is described as follows: Randall-Selitto method using rats (yeast-induced inflammatory pain). The note with it: oral; for Inhibition rate: area under the curve of pain threshold vs control; for ED50: Rattus norvegicus, analgesic effect. The method, then:
Pharmacological Experiment 2 (Randall-Selitto method using rats as subjects)
There were used groups each consisting of seven Wistar-strain male rats each weighing about 140 g. The rats were hypodermically injected with 0.1 ml of 20% yeast suspension at the paw of their right hind leg to induce inflammatory edema, and the threshold of pain of the paws was measured with the lapse of time in accordance with the Randall-Selitto method. Three hours after the reaction had been induced, the dose of the test compounds was orally administered to each rat as shown in the following Table 5.
In Table 5, the results were expressed in terms of inhibition rates and effective amounts (ED50) for the tested groups with respect to those of the control group (to which the compound was not orally administered) after the area under the curve had been measured subsequently to the administration.

The test system of the next data set is adjuvant arthritis. Put plainly: Adjuvant arthritis experiment using rats. Conditions: oral; for ED50: Rattus norvegicus, 168 h, once a day for 7 days. The method, then: Pharmacological Experiment 4 (Adjuvant arthritis experiment using rats)
0.6 mg/0.1 ml of Mycobacterium butyricum suspended in liquid paraffin were subcutaneously administered to the root of the tall of each of Wistar-strain male rats each weighing about 200 g (for the compound of Example 2 and comparative compound 1) or 240 g (for the compound of Example 24 and comparative compounds 4 and 5). […] The test compounds were orally administered once a day for 7 days to the selected rats in the predetermined doses, respectively, as indicated in the following Table 7. The inhibitory effect on the adjuvant arthritis was investigated referring, as a guide to the investigation, to the inhibition effect on swelling of the hind paws of each of the tested rats. In each of the tested rats, the inhibition rate was calculated by comparing the swelling volume ratio of the tested rat determined by the following formula with that of each rat of the control group (to which no test compounds were orally administered).
Swelling volume ratio = {(paw volume measured
26 days (*a) after the subcutaneous administration) -
(original or normal paw volume)}/{(paw volume
measured 19 days (*b) after the subcutaneous
administration) - (original or normal paw volume)} × 100
*a: 24 days later, for the compound of Example 24 and comparative
*b: 17 days later, for the compound of Example 24 and comparative

In a further data set the test system is Gastric mucous membrane. Put plainly: Gastric mucous membrane trouble experiment using rats. Conditions: oral, 3.0 mg/kg; fasted 18 hours; groups of eight rats. How it is done:
(§1) Pharmacological Experiment 3 (Gastric mucous membrane trouble experiment using rats)
(§2) There were used groups each consisting of eight Wistar-strain male rats each weighing about 160 g as test animals (subjects). The test compounds were orally administered to the test animals in the predetermined doses, respectively, as indicated in the following Table 6 after their fasting for 18 hours. Thirty five hours later than said administration, the rats so administered were dissected to remove therefrom the stomachs each of which was then fixed, cut along the greater curvature thereof and visually observed to find whether ulcers were formed therein. Further, 50% gastric ulcer-inducing doses (UD50) were determined.

Experiment in data set [3]: as above
The note with it: rat, in vivo. How it is done: as §1, §2

Where [4] appears, read: read-out: Inhibition rate (edema inhibition rate).
The mark [5] stands for this setting: 1.0 mg/kg once a day for 7 days.

Take `CC(C(=O)O)c1ccc(C[C@H]2CCCC[C@@H]2O)c(F)c1` (relative stereo) [Example 31]: the inhibition in vivo at 0.5 mg/kg in data set [1] (setting [4]) worked out at 54%.

For `CC(C(=O)O)c1ccc(C[C@H]2CCCC[C@@H]2O)c(Cl)c1` (stereo partly drawn) [Example 28, 2-[3-chloro-4-(trans-(1R, 2S)-2-hydroxycyclohexane-1-yl-methyl)phenyl]propionic acid], in data set [1] (setting [4]), the inhibition in vivo at 0.2 mg/kg stood at 38.3% and the inhibition in vivo at 0.5 mg/kg was determined as 54.8%. Moreover, the Inhibition rate in data set [2] (0.3 mg/kg) is reported as 62.5%. In data set [2] (1.0 mg/kg), the Inhibition rate amounted to 80.9%.

For the compound `COc1ccc2c(c1)c(CC(=O)O)c(C)n2C(=O)c1ccc(Cl)cc1` [compound 4, Indomethacin, reference compound], in data set [1] (po, read-out: Inhibition rate (edema inhibition rate)), the inhibition in vivo at 5 mg/kg amounted to 51.3%. In data set [2] (5.0 mg/kg), the Inhibition rate worked out at 76.3%. Also, the “Inhibition rate (swelling of hind paws)” value in the data set on adjuvant arthritis (setting [5]) stood at 58.7%.

`CC(C(=O)O)c1ccc(C[C@H]2CCCC[C@H]2O)c(F)c1` (relative stereo) [Example 32]: in data set [1] (setting [4]), the inhibition in vivo at 0.5 mg/kg was determined as 37.9%.

Turning to `CC(C(=O)O)c1ccc(C[C@@H]2CCC[C@H]2O)c(Cl)c1` (relative stereo) [Example 40, 2-[3-chloro-4-(trans-2-hydroxycyclopentane-1-ylmethyl)phenyl] propionic acid], in data set [1] (setting [4]), the inhibition in vivo at 0.2 mg/kg was determined as 34.5% and the inhibition in vivo at 0.5 mg/kg was 56.3%.

In the case of `CC(C(=O)O)c1ccc(C[C@@H]2CCCC[C@H]2O)cc1` (relative stereo) [compound 5, 2[4-(trans-2-hydroxycyclohexane-1-ylmethyl)phenyl]propionic acid, reference compound], in data set [1] (setting [4]), the inhibition in vivo at 0.5 mg/kg turned out to be 33.7%. The “Inhibition rate (swelling of hind paws)” value was found to be 42.7% in the data set on adjuvant arthritis (3.0 mg/kg once a day for 7 days) and 56.4% in the data set with adjuvant arthritis (10.0 mg/kg once a day for 7 days).

On to `CC(C(=O)O)c1ccc(CC2CCCCC2=O)c(F)c1` (stereo not drawn) [Example 10], for which, in data set [1] (setting [4]), the inhibition in vivo at 0.5 mg/kg came to 50.2%.

`CC(C(=O)O)c1ccc(CC2CCCC2=O)c(Cl)c1` (stereo not drawn) [Example 3, 2-[3-chloro-4-(2-oxocyclopentane-1-ylmethyl)phenyl]propionic acid]: in data set [1] (setting [4]), the inhibition in vivo at 0.2 mg/kg came to 20.2% and the inhibition in vivo at 0.5 mg/kg came to 48.5%. For the same compound, the Inhibition rate in data set [2] (0.3 mg/kg) is given as 44.7%. The compound further returned an Inhibition rate in data set [2] (1.0 mg/kg) of 69.3%.

Turning to `CC(C(=O)O)c1ccc(C[C@@H]2CCC[C@H]2O)cc1` (relative stereo) [compound 6, 2[4-(trans-2-hydroxycyclopentane-1-ylmethyl)phenyl]propionic acid, reference compound], in data set [1] (setting [4]), the inhibition in vivo at 0.2 mg/kg is 22.5% and the inhibition in vivo at 0.5 mg/kg turned out to be 38.5%.

Regarding `CC(C(=O)O)c1ccc(C[C@@H]2CCCC[C@H]2O)c(Cl)c1` (relative stereo) [Example 24, 2-[3-chloro-4-(trans-2-hydroxycyclohexane-1-ylmethyl)phenyl]propionic acid], the inhibition in vivo at 0.2 mg/kg in data set [1] (setting [4]) amounted to 33.4%. Also, the inhibition in vivo at 0.5 mg/kg in data set [1] (setting [4]) amounted to 47.1%. Also, the “Inhibition rate (swelling of hind paws)” value with adjuvant arthritis (0.1 mg/kg once a day for 7 days) is 34.2%; in the data set with adjuvant arthritis (0.3 mg/kg once a day for 7 days), 49.9%; in the data set with adjuvant arthritis (setting [5]) it was 65.9%.

With `CC(C(=O)O)c1ccc(CC2CCCCC2=O)cc1` (stereo not drawn) [compound 2, 2[4-(2-oxocyclohexane-1-ylmethyl)phenyl]propionic acid, reference compound], in data set [1] (setting [4]), the inhibition in vivo at 0.5 mg/kg turned out to be 27.1%. Also, the Inhibition rate in data set [2] (1.0 mg/kg) is 44.3%.

As for `CC(C(=O)O)c1ccc(CC2CCCC2=O)c(F)c1` (stereo not drawn) [Example 6], the inhibition in vivo at 0.5 mg/kg in data set [1] (setting [4]) came out at 52.2%. For the same compound, the “Ulcer formation (incidence)” value with Gastric mucous membrane is reported as 1/8.

`CC(C(=O)O)c1ccc(CC2CCCCC2=O)c(Cl)c1` (stereo not drawn) [Example 2, 2-[3-chloro-4-(2-oxocyclohexane-1-ylmethyl)phenyl]propionic acid]: the inhibition in vivo at 0.2 mg/kg in data set [1] (setting [4]) worked out at 21.8%. Also, in data set [1] (setting [4]), the inhibition in vivo at 0.5 mg/kg was 49.5%. The ED50 in data set [1] is 0.6 mg/kg; in data set [2] it was 0.3 mg/kg; with adjuvant arthritis it was 0.5 mg/kg. Also, the TD50 at 35 h in data set [3] (po) came to 5.6 mg/kg. Also, in the data set with Gastric mucous membrane, the “Ulcer formation (incidence)” value is listed as 2/8. For the same compound, the Inhibition rate is 54.3% in data set [2] (0.3 mg/kg) and 75.1% in data set [2] (1.0 mg/kg). In addition, in the data set with adjuvant arthritis (setting [5]), the “Inhibition rate (swelling of hind paws)” value worked out at 62.1%.

Turning to `CC(C(=O)O)c1ccc(CC2CCCC2)c(Cl)c1` (stereo not drawn) [compound 3, 2(3-chloro-4-cyclopentylmethylphenyl)propionic acid, reference compound], in data set [1] (setting [4]), the inhibition in vivo at 0.5 mg/kg worked out at 10.2%. In data set [2] (1.0 mg/kg), the Inhibition rate is recorded as 18.4%.

Consider `CC(C(=O)O)c1ccc(CC2CCCC2=O)cc1` (stereo not drawn) [compound 1, Loxoprofen, reference compound], for which the inhibition in vivo at 0.5 mg/kg in data set [1] (setting [4]) turned out to be 23.9%. Also, the ED50 came out at 1.5 mg/kg in data set [1], 1.5 mg/kg in data set [2] and 8.1 mg/kg with adjuvant arthritis. For the same compound, the TD50 at 35 h in data set [3] (oral, fasted 18 hours, read-out: UD50 (50% gastric ulcer-inducing dose)) was 4.7 mg/kg. Moreover, in the data set on Gastric mucous membrane, the “Ulcer formation (incidence)” value is reported as 4/8. Moreover, in data set [2] (1.0 mg/kg), the Inhibition rate amounted to 49.7%. The “Inhibition rate (swelling of hind paws)” value with adjuvant arthritis (setting [5]) was found to be 1.3%.

As to `CC(C(=O)O)c1ccc(C[C@H]2CCC[C@@H]2O)c(Cl)c1` (stereo partly drawn) [Example 44, 2-[3-chloro-4-(trans-(1R, 2S)-2-hydroxycyclopentane-1-ylmethyl)phenyl]propionic acid], in data set [1] (setting [4]), the inhibition in vivo at 0.2 mg/kg amounted to 42.2% and the inhibition in vivo at 0.5 mg/kg worked out at 65.5%.

With `CC(C(=O)O)c1ccc(C[C@H]2CCC[C@@H]2O)c(F)c1` (relative stereo) [Example 46], the inhibition in vivo at 0.5 mg/kg in data set [1] (setting [4]) came out at 60.5%.

On to `CC(C(=O)O)c1ccc(C[C@H]2CCC[C@H]2O)c(F)c1` (relative stereo) [Example 47], for which the inhibition in vivo at 0.5 mg/kg in data set [1] (setting [4]) is 45.6%.
